From PubChem BioAssay (NCI)
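Method: 48-hour compound exposure of cells in 96-well plates, five concentrations, linear interpolation of endpoints. GI50: concentration for 50% inhibition of growth. TGI marks complete inhibition of growth.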

Tests used:
Experiment in all cases: NCI-60 cell line screen, 48 h
HT29 colon = system: HT29 colon
NCI/ADR-RES ovarian = system: NCI/ADR-RES ovarian
U251 CNS = system: U251 CNS
CCRF-CEM leukemia = system: CCRF-CEM leukemia
TK-10 renal = system: TK-10 renal
IGROV1 ovarian = system: IGROV1 ovarian
SNB-19 CNS = system: SNB-19 CNS
SF-268 CNS = system: SF-268 CNS
OVCAR-8 ovarian = system: OVCAR-8 ovarian
NCI-H522 lung = system: NCI-H522 lung
LOX IMVI melanoma = system: LOX IMVI melanoma
OVCAR-4 ovarian = system: OVCAR-4 ovarian
HCT-15 colon = system: HCT-15 colon
A498 renal = system: A498 renal
RPMI-8226 leukemia = system: RPMI-8226 leukemia
MOLT-4 leukemia = system: MOLT-4 leukemia
HCC-2998 colon = system: HCC-2998 colon
DU-145 prostate = system: DU-145 prostate
PC-3 prostate = system: PC-3 prostate
T-47D breast = system: T-47D breast
KM12 colon = system: KM12 colon
NCI-H460 lung = system: NCI-H460 lung
BT-549 breast = system: BT-549 breast
SR leukemia = system: SR leukemia
SF-539 CNS = system: SF-539 CNS
SK-MEL-28 melanoma = system: SK-MEL-28 melanoma
EKVX NSCLC = system: EKVX NSCLC
SK-MEL-5 melanoma = system: SK-MEL-5 melanoma
SF-295 CNS = system: SF-295 CNS
UACC-257 melanoma = system: UACC-257 melanoma
HL-60(TB) leukemia = system: HL-60(TB) leukemia
SW-620 colon = system: SW-620 colon
A549 NSCLC = system: A549 NSCLC
SK-OV-3 ovarian = system: SK-OV-3 ovarian
SK-MEL-2 melanoma = system: SK-MEL-2 melanoma
NCI-H23 lung = system: NCI-H23 lung
SN12C renal = system: SN12C renal
K-562 leukemia = system: K-562 leukemia
786-0 renal = system: 786-0 renal
UACC-62 melanoma = system: UACC-62 melanoma
HOP-92 NSCLC = system: HOP-92 NSCLC
MALME-3M melanoma = system: MALME-3M melanoma
RXF 393 renal = system: RXF 393 renal
UO-31 renal = system: UO-31 renal
ACHN renal = system: ACHN renal
CAKI-1 renal = system: CAKI-1 renal
SNB-75 CNS = system: SNB-75 CNS
COLO 205 colon = system: COLO 205 colon
OVCAR-5 ovarian = system: OVCAR-5 ovarian
MDA-MB-231 breast = system: MDA-MB-231 breast
MCF7 breast = system: MCF7 breast
MDA-MB-435 = system: MDA-MB-435
HCT-116 colon = system: HCT-116 colon
OVCAR-3 ovarian = system: OVCAR-3 ovarian

`COC(=O)c1cc2c3c(cc(O)c2[nH]1)N(C(=O)C1Cc2cc(OC)c(OC)c(OC)c2N1)CC3CCl` (configuration not stated) showed a GI50 (HT29 colon) of under 0.01 µM, a TGI (HT29 colon) of under 0.01 µM and a GI50 (NCI/ADR-RES ovarian) of under 0.01 µM. For the same compound, the TGI (NCI/ADR-RES ovarian) was over 100 µM, the GI50 (U251 CNS) was under 0.01 µM and the TGI (U251 CNS) was 0.0109 µM. The GI50 (CCRF-CEM leukemia) was under 0.01 µM, the TGI (CCRF-CEM leukemia) was over 100 µM and the GI50 (TK-10 renal) was under 0.01 µM. The TGI (TK-10 renal) was under 0.01 µM, the GI50 (IGROV1 ovarian) was under 0.01 µM and the TGI (IGROV1 ovarian) was 0.98 µM. For the same compound, the GI50 (SNB-19 CNS) was under 0.01 µM, the TGI (SNB-19 CNS) was 1.05 µM and the GI50 (SF-268 CNS) was under 0.01 µM. For the same compound, the TGI (SF-268 CNS) was 0.646 µM, the GI50 (OVCAR-8 ovarian) was under 0.01 µM and the TGI (OVCAR-8 ovarian) was 0.014 µM. For the same compound, the GI50 (NCI-H522 lung) was under 0.01 µM, the TGI (NCI-H522 lung) was under 0.01 µM and the GI50 (LOX IMVI melanoma) was under 0.01 µM. For the same compound, the TGI (LOX IMVI melanoma) was 0.291 µM, the GI50 (OVCAR-4 ovarian) was under 0.01 µM and the TGI (OVCAR-4 ovarian) was 0.845 µM. The GI50 (HCT-15 colon) was under 0.01 µM, the TGI (HCT-15 colon) was 10.4 µM and the GI50 (A498 renal) was under 0.01 µM. It also gave a TGI (A498 renal) of under 0.01 µM, a GI50 (RPMI-8226 leukemia) of under 0.01 µM and a TGI (RPMI-8226 leukemia) of under 0.01 µM. It also gave a GI50 (MOLT-4 leukemia) of under 0.01 µM, a TGI (MOLT-4 leukemia) of 0.132 µM and a GI50 (HCC-2998 colon) of under 0.01 µM. The TGI (HCC-2998 colon) was 0.113 µM, the GI50 (DU-145 prostate) was under 0.01 µM and the TGI (DU-145 prostate) was 0.106 µM. For the same compound, the GI50 (PC-3 prostate) was under 0.01 µM, the TGI (PC-3 prostate) was under 0.01 µM and the GI50 (T-47D breast) was under 0.01 µM. The TGI (T-47D breast) was under 0.01 µM, the GI50 (KM12 colon) was under 0.01 µM and the TGI (KM12 colon) was 0.0142 µM. It also gave a GI50 (NCI-H460 lung) of under 0.01 µM, a TGI (NCI-H460 lung) of 0.175 µM and a GI50 (BT-549 breast) of under 0.01 µM. It also gave a TGI (BT-549 breast) of under 0.01 µM, a GI50 (SR leukemia) of under 0.01 µM and a TGI (SR leukemia) of over 100 µM. The GI50 (SF-539 CNS) was under 0.01 µM, the TGI (SF-539 CNS) was under 0.01 µM and the GI50 (SK-MEL-28 melanoma) was under 0.01 µM. For the same compound, the TGI (SK-MEL-28 melanoma) was under 0.01 µM, the GI50 (EKVX NSCLC) was under 0.01 µM and the TGI (EKVX NSCLC) was under 0.01 µM. It also gave a GI50 (SK-MEL-5 melanoma) of under 0.01 µM, a TGI (SK-MEL-5 melanoma) of under 0.01 µM and a GI50 (SF-295 CNS) of under 0.01 µM. It also gave a TGI (SF-295 CNS) of under 0.01 µM, a GI50 (UACC-257 melanoma) of under 0.01 µM and a TGI (UACC-257 melanoma) of under 0.01 µM. It also gave a GI50 (HL-60(TB) leukemia) of under 0.01 µM, a TGI (HL-60(TB) leukemia) of 0.0102 µM and a GI50 (SW-620 colon) of under 0.01 µM. For the same compound, the TGI (SW-620 colon) was 0.132 µM, the GI50 (A549 NSCLC) was under 0.01 µM and the TGI (A549 NSCLC) was 1.36 µM. It also gave a GI50 (SK-OV-3 ovarian) of under 0.01 µM, a TGI (SK-OV-3 ovarian) of under 0.01 µM and a GI50 (SK-MEL-2 melanoma) of under 0.01 µM. The TGI (SK-MEL-2 melanoma) was under 0.01 µM, the GI50 (NCI-H23 lung) was under 0.01 µM and the TGI (NCI-H23 lung) was under 0.01 µM. For the same compound, the GI50 (SN12C renal) was under 0.01 µM and the TGI (SN12C renal) was 0.0154 µM.

`C/C=C1\C(=O)O[C@@H]2C1C[C@@H]1O[C@H]2[C@H](C)CCC/C(C)=C/CC[C@@]1(C)O` (some centres not stated) gave a GI50 (HT29 colon) of 25.4 µM, a TGI (HT29 colon) of over 100 µM and a GI50 (NCI/ADR-RES ovarian) of 3.89 µM. For the same compound, the TGI (NCI/ADR-RES ovarian) was 13.4 µM, the GI50 (K-562 leukemia) was 9.72 µM and the TGI (K-562 leukemia) was over 100 µM. For the same compound, the GI50 (786-0 renal) was 3.21 µM, the TGI (786-0 renal) was 14.2 µM and the GI50 (UACC-62 melanoma) was 7.16 µM. For the same compound, the TGI (UACC-62 melanoma) was 20.7 µM, the GI50 (HOP-92 NSCLC) was 7.62 µM and the TGI (HOP-92 NSCLC) was 31.5 µM. For the same compound, the GI50 (U251 CNS) was 10.3 µM, the TGI (U251 CNS) was 23.6 µM and the GI50 (CCRF-CEM leukemia) was 3.53 µM. It also gave a TGI (CCRF-CEM leukemia) of 11.8 µM, a GI50 (TK-10 renal) of 4.46 µM and a TGI (TK-10 renal) of 13.5 µM. For the same compound, the GI50 (MALME-3M melanoma) was 3.47 µM, the TGI (MALME-3M melanoma) was 18.5 µM and the GI50 (RXF 393 renal) was 2.59 µM. The TGI (RXF 393 renal) was 6.99 µM, the GI50 (IGROV1 ovarian) was 1.29 µM and the TGI (IGROV1 ovarian) was 3.32 µM. For the same compound, the GI50 (SNB-19 CNS) was 19.4 µM, the TGI (SNB-19 CNS) was 40.6 µM and the GI50 (SF-268 CNS) was 8.45 µM. The TGI (SF-268 CNS) was 23 µM, the GI50 (OVCAR-8 ovarian) was 2.52 µM and the TGI (OVCAR-8 ovarian) was 6.76 µM. For the same compound, the GI50 (UO-31 renal) was 3.02 µM, the TGI (UO-31 renal) was 10.4 µM and the GI50 (ACHN renal) was 2.77 µM. The TGI (ACHN renal) was 14.5 µM, the GI50 (NCI-H522 lung) was 2.29 µM and the TGI (NCI-H522 lung) was 7.06 µM. The GI50 (CAKI-1 renal) was 3.47 µM, the TGI (CAKI-1 renal) was 15.4 µM and the GI50 (LOX IMVI melanoma) was 5.8 µM. For the same compound, the TGI (LOX IMVI melanoma) was 21.5 µM, the GI50 (HCT-15 colon) was 5.51 µM and the TGI (HCT-15 colon) was 21.8 µM. It also gave a GI50 (SNB-75 CNS) of 9.81 µM, a TGI (SNB-75 CNS) of 33.4 µM and a GI50 (COLO 205 colon) of 8.16 µM. It also gave a TGI (COLO 205 colon) of 41.8 µM, a GI50 (RPMI-8226 leukemia) of 3.27 µM and a TGI (RPMI-8226 leukemia) of over 100 µM. For the same compound, the GI50 (OVCAR-5 ovarian) was 13.5 µM, the TGI (OVCAR-5 ovarian) was 26.8 µM and the GI50 (MOLT-4 leukemia) was 4.59 µM. For the same compound, the TGI (MOLT-4 leukemia) was over 100 µM, the GI50 (HCC-2998 colon) was 2.95 µM and the TGI (HCC-2998 colon) was 6.33 µM. It also gave a GI50 (MDA-MB-231 breast) of 8.36 µM, a TGI (MDA-MB-231 breast) of 21.7 µM and a GI50 (PC-3 prostate) of 11.8 µM. The TGI (PC-3 prostate) was 25.8 µM, the GI50 (T-47D breast) was 42.7 µM and the TGI (T-47D breast) was over 100 µM. For the same compound, the GI50 (KM12 colon) was 13.9 µM, the TGI (KM12 colon) was 31.7 µM and the GI50 (NCI-H460 lung) was 4.81 µM. For the same compound, the TGI (NCI-H460 lung) was 25.7 µM, the GI50 (SR leukemia) was 2.41 µM and the TGI (SR leukemia) was over 100 µM. It also gave a GI50 (SF-539 CNS) of 2.52 µM, a TGI (SF-539 CNS) of 6.06 µM and a GI50 (MCF7 breast) of 2.33 µM. For the same compound, the TGI (MCF7 breast) was 6.1 µM, the GI50 (SK-MEL-28 melanoma) was 0.38 µM and the TGI (SK-MEL-28 melanoma) was 21.9 µM. For the same compound, the GI50 (EKVX NSCLC) was 2.22 µM, the TGI (EKVX NSCLC) was 5.53 µM and the GI50 (SK-MEL-5 melanoma) was 3.03 µM. For the same compound, the TGI (SK-MEL-5 melanoma) was 9.4 µM, the GI50 (SF-295 CNS) was 13.3 µM and the TGI (SF-295 CNS) was 27.6 µM. It also gave a GI50 (UACC-257 melanoma) of 4.2 µM, a TGI (UACC-257 melanoma) of 10.9 µM and a GI50 (MDA-MB-435) of 6.67 µM. It also gave a TGI (MDA-MB-435) of 22.9 µM, a GI50 (HL-60(TB) leukemia) of 5.55 µM and a TGI (HL-60(TB) leukemia) of over 100 µM. The GI50 (SW-620 colon) was 4.14 µM, the TGI (SW-620 colon) was 15 µM and the GI50 (HCT-116 colon) was 2.81 µM. It also gave a TGI (HCT-116 colon) of 10.1 µM, a GI50 (A549 NSCLC) of 10.6 µM and a TGI (A549 NSCLC) of 22.5 µM. It also gave a GI50 (SK-OV-3 ovarian) of 14.1 µM, a TGI (SK-OV-3 ovarian) of 37.4 µM and a GI50 (SK-MEL-2 melanoma) of 3.66 µM. The TGI (SK-MEL-2 melanoma) was 13.2 µM, the GI50 (OVCAR-3 ovarian) was 1.48 µM and the TGI (OVCAR-3 ovarian) was 11.9 µM. For the same compound, the GI50 (SN12C renal) was 3.54 µM and the TGI (SN12C renal) was 13 µM.
